Results on four compounds are retold here after paper PMC9699089 (Pathogens, 2022).

The test system of test [1] is Plasmodium falciparum CQ-resistant strain W2. Description: In vitro antiplasmodial activity, SYBR Green I fluorescence-based method, strain W2. The test is classed as cell-based. The settings on record: CQ-resistant strain W2, 48 h incubation, mean of three independent experiments, read-out: P. falciparum Strains IC50 Values W2. The procedure: (§1) The in vitro antiplasmodial activities were tested over concentrations ranging from 39 nM to 40 µM against culture-adapted Plasmodium falciparum reference strains 3D7 and W2. […] These two strains are obtained from the collection of the National Museum of Natural History (Paris, France). The parasites were cultivated in RPMI medium (Sigma Aldrich, Lyon, France) supplemented with 0.5% Albumax I (Life Technologies Corporation, Paisley, UK), hypoxanthine (Sigma Aldrich), and gentamicin (Sigma Aldrich) with human erythrocytes and were incubated at 37 °C in a candle jar, as described previously. The P. falciparum drug susceptibility test was carried out in 96-well flat bottom sterile plates in a final volume of 250 µL. After 48 h incubation period with the drugs, quantities of DNA in treated and control cultures of parasites in human erythrocytes were quantified using the SYBR Green I (Sigma Aldrich) fluorescence-based method. Briefly, after incubation, plates were frozen at -20 °C until use. Plates were then thawed for 2 h at room temperature, and 100 µL of each homogenized culture was transferred to a well of a 96-well flat bottom sterile black plate (Nunc, Inc.) that contained 100 µL of the SYBR Green I lysis buffer (2xSYBR Green, 20 mM Tris base pH 7.5, 5 mM EDTA, 0.008% w/v saponin, 0.08% w/v Triton X-100). […] Plates were incubated for 1 h at room temperature and then read on a fluorescence plate reader (Tecan, Austria) using excitation and emission wavelengths of 485 and 535 nm, respectively.

Test [2] deals with T. brucei brucei AnTat 1.9. Description: In vitro antitrypanosomal activity, Alamar Blue assay. The test is classed as cell-based, Trypanosoma brucei brucei. The settings on record: Trypanosoma brucei, slender bloodstream trypomastigotes, AnTat 1.9 strain; mean +/- SD of three independent experiments; read-out: Trypanosoma brucei brucei IC50 Values Trypanos Antat 1.9. Summed up:
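Bloodstream T. brucei brucei AnTat 1.9 cultured in supplemented MEM with Earle's salts and exposed to compounds in duplicate for 69 h at 37 °C. Alamar Blue then added for 5 h, with fluorescence read at ex 530/em 590 nm.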
A general note: Alamar Blue is a resazurin reagent that responds to reducing activity.

Test [3] has as its target human telomeric sequence 24TTG. Description: Native electrospray mass spectrometry, 24TTG. The arrangement: key to Kd 24TTG, stoichiometry 1 (Kd1): n.b.: no binding detected; <LOQ: binding detected but below limit of quantitation. The test is classed as binding. The settings on record: 100 mM TMAA, 1 mM KCl. The procedure:
(§2) Oligonucleotides were purchased in the lyophilized form from Eurogentec (RP-cartridge purification), and dissolved at 1 mM in pure water. TMAA (1 M) was purchased from Santa Cruz Biotechnology and potassium chloride (purity > 99.99%) from Sigma Aldrich (Sigma Aldrich, Saint-Quentin-Fallavier, France). The sample solutions contained 10 µM oligonucleotide and 10 (for CD only) or 20 µM ligand, in a 100 mM TMAA, 1mM KCl buffer. The solutions were incubated overnight at 4 °C before analysis.
(§3) The sample solutions were injected at a 10 µM strand concentration on an Agilent 6560 DTIMS-Q-TOF instrument (Agilent Technologies, Santa Clara, CA, USA), equipped with a dual-ESI source operated in the negative ion mode in soft conditions. The following parameters were used: fragmentor 320 V, trap fill time 1000 µs, trap release time 200 µs, trap entrance grid delta 2 V. The drift tube was filled with helium and the pressure was fixed at 3.89 ± 0.01 Torr (measured by a capacitance diaphragm gauge CDG-500, Agilent Technologies).
(§4) The MS data were extracted using the IM-MS Browser (v. B.08.00; Agilent Technologies). The peak area intensity of each species at the 5- charge state was extracted from their corresponding m/z range (encompassing potassium adducts), and baseline subtracted. The concentrations of all species (free DNA, free ligands, and complexes) and corresponding dissociation constants were determined as previously described.

Test [4] deals with duplex-forming sequence DK66. Nature of the test: Native electrospray mass spectrometry, DK66. The test is classed as binding. Details: key to Kd DK66, stoichiometry 2 (Kd2) / Kd DK66, stoichiometry 1 (Kd1): n.b.: no binding detected; <LOQ: binding detected but below limit of quantitation. The following applies: 100 mM TMAA, 1 mM KCl; for Kd: read-out: Kd DK66, stoichiometry 1 (Kd1); for Kd DK66, stoichiometry 2 (Kd2): 2:1 ligand:DNA complex. The procedure: as §2, §3, §4

Test [5] has as its target G-rich unfolded single-stranded sequence 24nonG4. Nature of the test: Native electrospray mass spectrometry, 24nonG4. The test is classed as binding. The arrangement: key to Kd 24nonG4, stoichiometry 2 (Kd2) / Kd 24nonG4, stoichiometry 1 (Kd1): n.b.: no binding detected; <LOQ: binding detected but below limit of quantitation. The settings on record: 100 mM TMAA, 1 mM KCl; for Kd: read-out: Kd 24nonG4, stoichiometry 1 (Kd1); for Kd 24nonG4, stoichiometry 2 (Kd2): 2:1 ligand:DNA complex. The procedure: as §2, §3, §4

Test [6] relates to Plasmodium falciparum CQ-sensitive strain 3D7. Nature of the test: In vitro antiplasmodial activity, SYBR Green I fluorescence-based method, strain 3D7. The test is classed as cell-based. The following applies: CQ-sensitive strain 3D7, 48 h incubation, mean of three independent experiments, read-out: P. falciparum Strains IC50 Values 3D7. The procedure: as §1
Where [7] appears, read: 1:1 ligand:DNA complex, read-out: Kd 24TTG, stoichiometry 1 (Kd1).
Where [8] appears, read: 2:1 ligand:DNA complex, read-out: Kd 24TTG, stoichiometry 2 (Kd2).

One may read the IC50 as the midpoint of a concentration-inhibition curve. Broadly, the Kd is the concentration at which binding is half-saturated.

Read-outs that look alike come from different tables or passages of the source.

Regarding `CN(C)CCCCNCc1cc(-c2ccccc2)c2ccc3c(-c4ccccc4)cc(CNCCCCN(C)C)nc3c2n1` [Compound 1c, 2,9-Bis[(4-dimethylaminobutyl)aminomethyl]-4,7-diphenyl-1,10-phenanthroline], the half-maximal inhibitory concentration (IC50) in test [1] was found to be 0.03 ± 0.003 µM; in test [2], 0.86 ± 0.16 µM; in test [6] it was 10.3 ± 2.13 µM. In addition, the Kd is 44 µM in test [3] (setting [7]), 28 µM in test [3] (setting [8]), 110 µM in test [4] (1:1 ligand:DNA complex) and 9 µM in test [5] (1:1 ligand:DNA complex). Besides, in test [4], the “Kd DK66, stoichiometry 2 (Kd2)” value is “n.b”. Besides, the “Kd 24nonG4, stoichiometry 2 (Kd2)” value in test [5] is “<LOQ”.

With `CN(C)CCCCCNCc1cc(-c2ccccc2)c2ccc3c(-c4ccccc4)cc(CNCCCCCN(C)C)nc3c2n1` [Compound 1d, 2,9-Bis[(5-dimethylaminopentyl)aminomethyl]-4,7-diphenyl-1,10-phenanthroline], the IC50 in test [1] came out at 3.51 ± 0.52 µM; in test [2], 1.42 ± 0.1 µM; in test [6], 4.79 ± 0.5 µM. The Kd in test [3] (setting [7]) was 38 µM; in test [3] (setting [8]) it was 62 µM; in test [4] (1:1 ligand:DNA complex), 53 µM; in test [5] (1:1 ligand:DNA complex), 11 µM. In test [4], the “Kd DK66, stoichiometry 2 (Kd2)” value is listed as “n.b”. In test [5], the “Kd 24nonG4, stoichiometry 2 (Kd2)” value is on record as “<LOQ”.

Consider `c1ccc(-c2cc(CNCCCN3CCCC3)nc3c2ccc2c(-c4ccccc4)cc(CNCCCN4CCCC4)nc23)cc1` [Compound 1l], for which the IC50 in test [1] came to 0.03 ± 0.01 µM; in test [2], 1.13 ± 0.06 µM; in test [6], 9.91 ± 1.73 µM. Further, the Kd worked out at 34 µM in test [3] (setting [7]), 18 µM in test [3] (setting [8]), 55 µM in test [4] (1:1 ligand:DNA complex) and 8 µM in test [5] (1:1 ligand:DNA complex). The “Kd DK66, stoichiometry 2 (Kd2)” value in test [4] is “n.b”. The “Kd 24nonG4, stoichiometry 2 (Kd2)” value in test [5] was “<LOQ”.

Regarding `c1ccc(-c2cc(CNCCc3ccccn3)nc3c2ccc2c(-c4ccccc4)cc(CNCCc4ccccn4)nc23)cc1` [Compound 1m], the concentration for half-maximal inhibition (IC50) is 0.07 ± 0.01 µM in test [1] and 0.47 ± 0.12 µM in test [6]. In addition, the “Kd 24TTG, stoichiometry 1 (Kd1)” value in test [3] (1:1 ligand:DNA complex) is on record as “n.b”. Further, the “Kd DK66, stoichiometry 1 (Kd1)” value in test [4] (1:1 ligand:DNA complex) is “n.b”. In addition, the “Kd 24nonG4, stoichiometry 1 (Kd1)” value in test [5] (1:1 ligand:DNA complex) is “n.b”.
